# Laboratory results as given in patent US11492589B2, “Lactobacillus plantarum CJLP475 strain having antiviral and immunomodulatory effects and composition comprising the same” (CJ CHEILJEDANG CORPORATION, priority 2018, dated 2022).
# Test system: Lactobacillus plantarum CJLP475 strain
# Assay: Antibiotic susceptibility test with antibiotic discs
# Format: cell-based
# Settings: antibiotic discs on solid Mueller Hinton II medium, 37° C., 24 hours
# Experimental: The CJLP475 strain was inoculated into a liquid MRS medium and subjected to a static culture at 37° C. for 24 hours. The thus-cultured bacteria were soaked in sterilized cotton swabs and smeared on a solid Mueller Hinton II medium (Difco), and then antibiotic discs were placed on the medium and incubated at 37° C. for 24 hours. Ampicillin, clindamycin, gentamicin, kanamycin, erythromycin, ampicillin/sulbactam, chloramphenicol, and streptomycin discs (Oxoid, UK) were used as antibiotic discs for the antibiotic test.
row,Compound,Radius of Growth Inhibition Area Centered Around Antibiotics [mm]
1,"CC1(C)S[C@@H]2[C@H](NC(=O)[C@H](N)c3ccccc3)C(=O)N2[C@H]1C(=O)O [Amp10 (Ampicillin), Ampicillin]",7
2,"CCC[C@@H]1C[C@@H](C(=O)N[C@@H]([C@H]2O[C@H](SC)[C@H](O)[C@@H](O)[C@H]2O)[C@H](C)Cl)N(C)C1 [C30 (Clindamycin), Clindamycin]",8
3,"[H]/N=C(/N)N[C@H]1[C@H](O)[C@@H](O)[C@H](O[C@@H]2O[C@@H](C)[C@](O)(C=O)[C@H]2O[C@@H]2O[C@@H](CO)[C@H](O)[C@@H](O)[C@@H]2NC)[C@@H](N/C(N)=N\[H])[C@@H]1O [DA2 (Streptomycin), Streptomycin]",4
4,"CC[C@H]1OC(=O)[C@H](C)[C@@H](O[C@H]2C[C@@](C)(OC)[C@@H](O)[C@H](C)O2)[C@H](C)[C@@H](O[C@@H]2O[C@H](C)C[C@H](N(C)C)[C@H]2O)[C@](C)(O)C[C@@H](C)C(=O)[C@H](C)[C@@H](O)[C@]1(C)O [E15 (Erythromycin), Erythromycin]",9
5,"NC[C@H]1O[C@H](O[C@H]2[C@H](O)[C@@H](O[C@H]3O[C@H](CO)[C@@H](O)[C@H](N)[C@H]3O)[C@H](N)C[C@@H]2N)[C@H](O)[C@@H](O)[C@@H]1O [K30 (Kanamycin), Kanamycin]",1.5
6,"O=C(N[C@H](CO)[C@H](O)c1ccc([N+](=O)[O-])cc1)C(Cl)Cl [S10 (Chloramphenicol), Chloramphenicol]",3
7,Ampicillin/Sulbactam [SAM20 (Ampicillin/Sulbactam)],8
8,Gentamicin [CN120 (Gentamicin)],9
